In patent US6319952A, “Compositions and methods for reversibly increasing permeability of biomembranes” (D-Pharm Ltd., priority 1997, dated 2001):

Legend:
[1] = system: blood-brain barrier (BBB); test: Effect of branched chain fatty acids on BBB permeability by qualitative Evan's Blue (EB) evaluation in rats; type: in vivo, rat (male Sprague-Dawley)
Protocol: Evaluation of Effect of Branched Fatty Acids on Blood-brain Barrier Permeability
The experiments were carried out on male Sprague-Dawley rats weighing 250-320 gr. They were anesthetized with Rampun-Imalgen. The right common carotid artery was exposed.
The test compounds were dissolved in 0.1M phosphate buffered physiological saline (pH=7.4) at the following test concentrations: 1.6; 8; 20; 40; 200 and 1000 μg/ml.
The test compound was infused into the right common carotid artery at a rate of 6 ml/min. for 30 s. The control rats were infused with buffer. Evan's Blue (EB) solution at a concentration of […] (2 g Evan's Blue, 0.9 g NaCl in 100 ml water) was injected intravenously 50 minutes prior to the termination of the experiment.
In the case of 45 min experiment, five minutes prior to the infusion of the tested material, 4 ml/kg body wt dose of Evans Blue solution was injected intravenously.
At the end of the experimental time period the animals were perfused with 100 ml of saline solution through the heart and decapitated. The degree of BBB opening, in terms of extravasation of Evan's Blue albumin, was graded on the basis of visual assessment of the degree of staining of the brain ato the method of Rapoport et al. (Rapoport et al., 1980, Amer. J. Physiol. 258, 421-431), and the results are presented in Tables 1 and 2.
The results presented are qualitative with four degrees of Evan's Blue extravasation according to Rapoport et al. Minus signs represents no staining and three plus signs represent maximal staining.

rat brain = test: Water concentration in the rat brain after intra-arterial administration (cerebral edema); type: in vivo; conditions: 20 μg/ml, 24 h
Protocol: The rats were treated by intraarterial infusion of M 3/14 20 μg/ml or phosphate buffered saline as control. After 24 hours the rats were decapitated, the brain was removed and dried at 110° C. until constant weight was achieved (normally three days). The percent water was calculated by the following equation:
% water=(wet sample weight-dry sample weight)×100/(wet sample weight)
This procedure is according to Karpiak and Mahadik (1984, J. Neurosci. Res. 12, 485-492).

rodent brains = test: Neurotoxicity by histopathology on fixed sectioned rodent brains; type: in vivo, rat; conditions: 20 or 200 μg/ml via internal carotid artery, 3 or 72 hr post infusion
Protocol: Potential neurotoxicity after treatment with M 3,14 was assessed by means of histopathology on fixed sectioned rodent brains.
Nine rodent brains were fixed in 10% neutral buffered formalin. These brains were obtained from rats infused with either buffer, 20 μg/ml, or 200 μg/ml M3,14 via the left internal carotid artery. The experiment was terminated and the samples collected either 3 or 72 hr. post infusion. Specimen and group identification were as follows:
control: 3 hr (2), 72 hr (1);
Upon receipt, coronal sections were prepared through the forebrain, midbrain and hindbrain. The right-left orientation was identified by placing a small cut in the cortex on the right side of the section. The sections were embedded as a single block, processed routinely in paraffin, sectioned at five microns and stained with hematoxylin and eosin. Sections were evaluated qualitatively.

[2] = system: ipsilateral hemisphere of the brain; test: Methotrexate content of brains of rats pretreated with M3,14 (DP-BFA); type: in vivo, rat; conditions: intra-arterial pre-treatment, carotid artery
[3] = Stability and solution appearance of DP-BFA; type: physicochemical
Protocol: DP-BFA is stored in a hermetically sealed dark vial filled with Argon at 5° C. for up to 3 months. The drug quantity was taken out the vial cap with a Teflon spatula. The compound was dissolved in sodium carbonate-sodium bicarbonate buffered saline solution adjusted to pH 8.8-9 at 37° C. A stock solution (12.8 mg/ml) was prepared and kept at 37° C. for 15 minutes. The solution was protected from light by covering it with aluminium foil. […] The desired concentration of DP-BFA was obtained by diluting the stock solution with the buffer. The solutions were filtered through a […] filter. The DP-BFA solutions were kept at 37° C. in vials protected from light, for no more than 6 hours.

CCCCCCCCCCCCCCC(CCC)C(=O)O (centres unmarked) [M 3/14, 2-propylhexadecanoic acid]
Visual EB ([1]; 1.6 μg/ml (5 μM/ml), 180 min): -
Visual EB ([1]; 8 μg/ml (25 μM/ml), 180 min): +
Visual EB ([1]; 20 μg/ml (62.5 μM/ml), 180 min): +
Visual EB ([1]; 40 μg/ml (125 μM/ml), 45 min): ++
Visual EB ([1]; 40 μg/ml (125 μM/ml), 180 min): ++
Visual EB ([1]; 125 μM, 180 min, intracarotid infusion): ++
Visual EB ([1]; 200 μg/ml (625 μM/ml), 45 min): +++
Visual EB ([1]; 625 μM, 45 min, intracarotid infusion): +++
Visual EB ([1]; 1000 μg/ml (3125 μM/ml), 45 min): +++
BBB permeability enhancement, potency ranking ([1]; Table 1 compounds): most potent BBB permeability enhancer
cerebral edema (rat brain): no cerebral edema effect
water content of brain, treated vs non treated rats (rat brain): no significant difference
Brain weight (rat brain; intra-arterial): 1.494 g
Brain weight after drying (rat brain; intra-arterial): 0.311 g
Water (rat brain; intra-arterial): 79.19%
histopathology (neurotoxicity) (rodent brains; listed as M 3,14): no treatment related changes observed
histopathology (neurotoxicity) (rodent brains; listed as M3,14): No treatment related changes were observed
penetration of MTX into the ipsilateral hemisphere [2]: significantly increased the penetration of MTX
appearance of stock solution ([3]; 12.8 mg/ml, carbonate-bicarbonate buffered saline, pH 8.8-9, 37° C.): completely transparent
stability (sensitivity to light, CO2) ([3]; white powder, sodium salt): sensitive to light and atmospheric CO2
